Assay results taken from patent US20200263184A1, “PHARMACEUTICAL COMPOSITION FOR PREVENTING AND TREATING CANCER, CONTAINING MALATE-ASPARTATE SHUTTLE INHIBITOR AND ANTICANCER DRUG AS ACTIVE INGREDIENTS” (NATIONAL CANCER CENTER, priority 2017, published 2020).

Legend:
Assay type in all cases: cell-based
[1] = system: Huh7, SNB19, UACC62, MDA-MB-231, KATO III cancer cell lines; assay: SRB cell proliferation, NPM and etomoxir, cancer cell lines; details: 25 μM NPM alone, 24 hours; cancer cell lines other than SNB19
[2] = system: UACC62 cells (melanoma cell line); assay: Intracellular ATP level with PSA or PA, UACC62; details: 2, 4, 6, 8 or 10 mM, 48 hours; compared to an untreated control
Protocol: (§1) Specifically, A549 cells, IMR90 cells, H23 cells, H226 cells, H522 cells, and EKVX cells, which are lung cancer cell lines; and UACC62 cells, MALME-3M cells, A357 cells, M14 cells, and UACC257 cells, which are melanoma cell lines, were separately cultured. […] for 48 hours, and then intracellular ATP levels were examined using an ATP colorimetric/fluorometric analysis kit (BioVision, Milpitas, Calif., USA) in accordance with the manufacturer's protocol. The incubated cells were divided into groups of 1×10^6 cells, 100 μl of an ATP assay buffer was added thereto to lyse the cells, followed by centrifugation at 15,000×g and 4° C. for 2 minutes to separate only the supernatant. 2 μl to 50 μl of the separated supernatant was transferred to a 96-well plate, and then an ATP assay buffer was added thereto to a final volume of 50 μl per well. […] After mixing, the plate was maintained in a dark room at room temperature for 30 minutes, and then absorbance was measured at 570 nm using a microplate reader. To compare relative ATP levels among the measured values, an absorbance value for cancer cells to which gossypol and phenformin were not added was set as a reference, and relative absorbance values of the cases in which cancer cells were treated with each drug were compared, to compare ATP levels in the cells. […]

[3] = system: A549 cells (lung cancer cell line); assay: Intracellular ATP level with PSA or PA, A549; details: 2, 4, 6, 8 or 10 mM, 48 hours; compared to an untreated control
Protocol: as §1

[4] = system: UACC62 cells (melanoma cell line); assay: SRB cell proliferation with PSA, UACC62; details: PSA 2, 4, 6, 8 or 10 mM, 48 hours
Protocol: (§2) Specifically, A549 cells, H522 cells, H226 cells, H23 cells, and EKVX cells, which are lung cancer cell lines; and UACC62 cells, UACC257 cells, A375 cells, SK-MEL-5 cells, and MALME-3M cells, which are melanoma cell lines, were separately cultured. The respective cells were cultured at a […] dose and inoculated in a 96-well plate at a concentration ranging from 5,000 cells/ml to 20,000 cells/ml according to the doubling time of each cell line. […] After completion of the culturing, to perform SRB analysis, a cooled 50% aqueous TCA solution was added to each well to a final concentration of 10% and the cells were incubated in a 4° C. refrigerated state for 60 minutes and then fixed. After incubation, the supernatant was removed, washed five times with tap water, and dried. A 1% acetic acid aqueous solution containing 0.4% sulforhodamine B was added to the dried sample in each well and maintained at room temperature for 10 minutes to stain the cells. After staining, the dye which was not used for staining was removed by washing with a 1% acetic acid solution, and then the plate was dried again. The dye which was used for staining was dissolved in a 10 mM Trisma base solution, and then absorbance was measured at 515 nm.
(§3) Specifically, A549 cells (lung cancer cell line), UACC62 cells (melanoma cell line), and IMR90 cells (normal control, lung fibroblasts) were separately cultured. […]

[5] = system: A549 cells (lung cancer cell line); assay: SRB cell proliferation with PSA, A549; details: PSA 2, 4, 6, 8 or 10 mM, 48 hours
Protocol: as §2, §3

[6] = system: IMR90 cells (normal control, lung fibroblasts); assay: SRB cell proliferation with PSA, IMR90; details: normal cell line, PSA 2, 4, 6, 8 or 10 mM, 48 hours
cancer cell lines = assay: Intracellular ATP level, MAS inhibitor and gossypol, cancer cell lines; details: 10 μM gossypol alone vs 4 mM PSA or PA alone, 48 hours
Protocol: as §1, with “[…],” for “an absorbance value for cancer cells to which gossypol and phenformin were not added was set as a reference,”

[7] = system: IMR90 cells (normal control); assay: Mitochondrial membrane potential (TMRE), IMR90; details: single drug alone (4 mM PSA or PA; 10 μM gossypol), 48 hours
Protocol: (§4) Specifically, A549 cells, UACC62 cells, and IMR90 cells, as a normal control, were cultured. The respective cultured cells were treated with a drug mixture of 4 mM of an SLC25A11 inhibitor (PSA or PA), which is an MAS inhibitor, and 10 μM gossypol or with only one of the drugs and cultured in the same manner as described above for 48 hours, and then each cell culture solution was dispensed into chamber slides (for fluorescence microscopy) or a 6-well plate (for flow cytometry). The dispensed culture solution was treated with 100 nM tetramethylrodamine ester (TMRE) as a fluorescent probe and a reaction was allowed to occur therebetween for 20 minutes. After the reaction, the cells were washed with cooled PBS, and the fluorescence development of the cells was measured using a Zeiss LSM510 fluorescence microscope (Carl Zeiss, Oberkochen, Baden-Wurttemberg, Germany). In addition, fluorescence intensity was analyzed in a flow cytometer using a 585 nm (FL-2) channel.

UACC62 cells = assay: Cell apoptosis (Annexin V-FITC/PI flow cytometry), UACC62; details: single drug alone (4 mM PSA or PA; 10 μM gossypol), 48 hours
Protocol: (§5) First, A549 cells, UACC62 cells, and IMR90 cells, as a normal control, were cultured. The cultured cells were treated with a drug mixture of a 4 mM […] inhibitor (PSA or PA), which is an MAS inhibitor, and 10 μM gossypol or with only one of the drugs and cultured in the same manner as described above for 48 hours. The medium was removed from the cultured cells, followed by washing the cells twice with cold PBS and centrifugation at 1,400 rpm for 3 minutes, and a binding buffer was added thereto so that concentration was 1×10^6 cells/[…]. Then, a […] buffer was transferred to a 5-mL culture tube and 5 μl of each of Annexin V-FITC and propidium iodine (PI) was added thereto. Mixing was performed by slowly vortexing the tube, and then the cells were incubated in a dark room at room temperature for 15 minutes. After incubation, a binding buffer (400 μl) was added thereto and the degree of increase in cell apoptosis was examined by a flow cytometer.

A549 cells [8] = assay: Mitochondrial membrane potential (TMRE), A549; details: 10 μM gossypol alone, 48 hours
Protocol: as §4

[9] = system: IMR90 cells (normal control); assay: Cell apoptosis (Annexin V-FITC/PI flow cytometry), IMR90; details: single drug alone (4 mM PSA or PA; 10 μM gossypol), 48 hours
Protocol: as §5

A549 cells [10] = assay: Cell apoptosis (Annexin V-FITC/PI flow cytometry), A549; details: single drug alone (4 mM PSA or PA; 10 μM gossypol), 48 hours
Protocol: as §5

[11] = system: EKVX, A549, HOP-62 (lung cancer) and UACC62, UACC257, A375 (melanoma) cells; assay: SRB cell proliferation, MAS inhibitor and gossypol, cancer cell lines; details: 48 hours

## O=C1C=CC(=O)N1c1ccc2ccc3cccc4ccc1c2c34 [NPM, N-(1-pyrenyl)maleimide]
[1]
  effect of inhibiting cancer cell proliferation: could be exhibited

## O=C(O)C(=O)c1ccccc1C(=O)O [PA, phthalonic acid]
[2]
  intracellular ATP levels: reduced
[3]
  intracellular ATP levels: reduced

## O=C(O)CC(C(=O)O)c1ccccc1 (stereo not shown) [PSA, phenyl succinic acid]
[4]
  level of cancer cell line proliferation: reduced in a manner dependent upon the concentration of added PSA
[2]
  intracellular ATP levels: reduced
[3]
  intracellular ATP levels: reduced
[5]
  level of cancer cell line proliferation: reduced in a manner dependent upon the concentration of added PSA
[6]
  cell proliferation: not significantly inhibited

## Cc1cc2c(C(C)C)c(O)c(O)c(C=O)c2c(O)c1-c1c(C)cc2c(C(C)C)c(O)c(O)c(C=O)c2c1O [gossypol]
Cancer cell lines
  intracellular ATP production level, difference between gossypol alone and PSA or PA alone: no significant difference
[7]
  mitochondrial membrane potential: no significant change
UACC62 cells
  cell apoptosis: insignificant extent
A549 cells [8]
  mitochondrial membrane potential: significant decrease
[9]
  cell apoptosis: no significant cell apoptosis
A549 cells [10]
  cell apoptosis: insignificant extent
[11]; 10 μM gossypol alone vs 25 μM NPM
  effect of inhibiting a cell proliferation level, gossypol alone versus NPM alone: more significantly exhibited
[11]; 10 μM gossypol alone vs 4 mM PSA or PA alone
  reduction in the cell proliferation level, gossypol alone versus PSA or PA alone: more prominent
